The values below are quoted from earlier work in patent US9580717B2, “Heterologous hosts” (priority 2009, dated 2017).

Data set [1] has as its system malignant mammalian cells.
The next data set deals with P388 leukaemia cells. The settings on record: mouse, in vivo.

Take `C[C@H]1CCC(C2=C(CC(=O)NCC(=O)c3csc(C(=O)C(=O)c4csc(CNC(=O)CC5=C(C6=N[C@@H](C)CC6)C(=O)NC56CC6)n4)n3)C3(CC3)NC2=O)=N1` [Colibactin]: in data set [1], the “cytopathic activity against malignant mammalian cells” value was “cytopathic activity”.

As for `CCCCCCC/C=C/C=C/C(=O)N[C@H](C(=O)N[C@H]1C[C@@H](O)CCNC(=O)/C=C/[C@H](C)NC1=O)[C@@H](C)O` [Glidobactin A], in the data set on tumour cell lines, the “cytotoxicity to tumour cell lines” value is “cytotoxic to tumour cell lines”. In addition, in the data set with P388 leukaemia cells, the “lifespan of mice inoculated with P388 leukaemia cells” value is recorded as “can prolong the lifespan”.
